This is an account of results in US20160287534A1, “METHODS FOR REVERSING FIBROSIS” (The University of Connecticut, priority 2015, published 2016).

The test system of one test is primary HSCs. Briefly: Activation of primary mouse HSCs on untreated dishes (Example 1): α-SMA qRT-PCR, immunostaining, in-cell Western. Format: cell-based, C57BL/6J mice. From the text:
Primary HSCs were isolated from C57BL/6J mouse liver using the collagenase/pronase digestion method (see Weiskirchen et al. Fibrosis Research, 2005, vol. 117, pp. 99-113). In brief, mice were anesthetized with ketamine/xylazine (120/6 mpk) (Butler Schein, Dublin, Ohio). Abdominal and chest cavities were opened to expose the portal vein and to locate the heart and vena cava, respectively. Subsequently, a 20 G×1″ I.V. catheter (Terumo, Somerset, N.J.) was inserted into the vena cava through the right atrium and the portal vein was cut. A mouse liver was perfused at 5 mL/min with 25 mL SC-1 solution consisting of the following (per L); 8000 mg NaCl, 400 mg KCl, 88.17 mg NaH2PO4 2H2O, 120.45 mg Na2HPO4 12H2O, 2380 mg 4-(2-hydroxyethyl)-1-piperazineethanesulfonic acid (HEPES), 350 mg NaHCO3, 190 mg ethylene glycol tetraacetic acid, and 900 mg glucose, pH 7.2-7.3. The liver was, then, digested with 300 μg/mL pronase E (Roche, Mannheim, Germany) in SC-2 solution consisting of 8000 mg NaCl, 400 mg KCl, 88.17 mg NaH2PO4 2H2O, 120.45 mg Na2HPO4 12H2O, 2380 mg HEPES, 350 mg NaHCO3, and 560 mg CaCl2 2H2O, per L, pH 7.2-7.3, followed by 600 μg/mL collagenase D (Roche, Mannheim, Germany) in SC-2 solution at 5 mL/min for 5 min each. The digested liver was harvested and filtered through a 100 μm cell strainer (Fisher Scientific, Pittsburgh, Pa.). The hepatic cells were then centrifuged at 60×g for 1 min to separate non-parenchymal cells from hepatocytes. The supernatant containing non-parenchymal cells was separated based on density using a top layer of Gey's Balanced Salt Solution (GBSS), a middle layer of 10% Nycodenz (Axis-Shield, Scotland) and a bottom layer of 14.5% Nycodenz diluted in GBSS. The tube was centrifuged at 2100×g or 20 min and the primary HSCs were collected from the interface between the GBSS and 10% Nycodenz.
LX-2 cells were kindly provided by Dr. Scott Friedman at the Icahn School of Medicine at Mount Sinai (New York, N.Y.). […]

The test system of another test is LX-2 cells. Briefly: qRT-PCR of fibrogenic genes in LX-2 cells (Example 2). The class given is cell-based. The method, then: Mouse primary HSCs were isolated from C57BL/6J, nuclear erythroid 2-related factor 2 (NRF2) knockout (Nrf2−/−), and wild-type mice using a pronase/collagenase digestion method as described herein Example 1. The cells were then cultured on untreated petri dishes (BD Falcon, Franklin Lakes, N.J.), and maintained in a low-glucose DMEM medium supplemented with 10% FBS, 4 mM L-glutamine, and P/S (100 U/100 μg per mL). Human primary HSCs (Zen-Bio, Research Triangle Park, N.C.) were maintained in a low-glucose DMEM medium containing 2% FBS, 4 mM L-glutamine, 1× nonessential amino acids, 1× vitamins, and P/S (100 U/100 μg per mL). The cells were seeded on a collagen-coated plate for experiments (Sarstedt, Newton, N.C.). LX-2 cells, kindly provided by Dr. Scott Friedman at the Icahn School of Medicine at Mount Sinai (New York, N.Y.), were maintained in a low-glucose DMEM supplemented with 2% FBS, 4 mM L-glutamine, and P/S (100 U/100 μg per mL). All cells were cultured in a 37° C. humidified cell culture chamber with 5% CO2. Cell culture supplies were purchased from HyClone unless stated otherwise (Thermo Scientific, Logan, Utah).
Total RNA extraction, cDNA synthesis, and qRT-PCR were conducted using a Bio-Rad CFX96 Real-Time system (Bio-Rad, Hercules, Calif.) as previously described (Id.). Primer sequences will be available upon request. […]
(In general: In qPCR the cycle at which signal appears reflects the starting amount.)

For `CC1=C(/C=C/C(C)=C/C=C/C(C)=C/C=C/C=C(C)/C=C/C=C(C)/C=C/C2=C(C)C(=O)C(O)CC2(C)C)C(C)(C)CC(O)C1=O` (centres unmarked) [ASTX, astaxanthin], in the test with primary HSCs (25 μM ASTX added for 2 days during HSC activation (FIG. 6A)), the “α-SMA mRNA levels” value is “significantly reduced”. In addition, the “decrease of α-SMA protein (in-cell Western)” value in the test with primary HSCs (ASTX treatment at days 0, 2 and 4 until day 6, vs control without ASTX (FIG. 6C)) is 30-40%. For the same compound, the “α-SMA protein levels (immunostaining)” value with primary HSCs (day 4 of incubation, ASTX for 2 days (FIG. 6B)) is reported as “markedly decreased”. Moreover, the “basal levels of α-SMA and Col1A1 expression” value with LX-2 cells (LX-2 cells pretreated with ASTX 12 h (FIG. 13A)) is “repressed”. Also, the “α-SMA and Col1A1 expression induced by TGFβ1” value with LX-2 cells (LX-2 cells, ASTX 12 h, then 3 ng/mL TGFβ1 12 h (FIG. 13A)) is listed as “attenuated”.
